By IC50 is commonly meant the concentration at which inhibition is half-maximal. Lower therefore signals higher potency.

Among the data in BindingDB's records for doi:10.1021/jm00078a018 (Merck Research Laboratories, 1994) are IC50 values, retold here.

This test in a line: Inhibition of binding of [125I]-CCK-8 to the cholecystokinin type B receptor.
For the compound `O=C(Nc1ccc(Cl)cc1)NC1N=C(c2ccccc2)c2ccccc2N(CC(=O)N2CCCC2)C1=O` (stereo not given), the IC50 stood at 1.6 nM.
The value for `CN1C(=O)[C@H](NC(=O)c2ccc(C(F)(F)F)cc2)N=C(c2ccccc2)c2ccccc21` was 3300 nM.
The value for `O=C(Nc1ccc(Cl)cc1)N[C@H]1N=C(c2ccccc2)c2ccccc2N(CC(=O)N2CCCC2)C1=O` was 13 nM.
For the compound `CN1C(=O)[C@H](NC(=O)Nc2cccc(I)c2)N=C(c2ccccc2)c2ccccc21`, the half-maximal inhibitory concentration (IC50) was found to be 6.9 nM.
The compound `CN1C(=O)[C@@H](NC(=O)c2ccc(C(F)(F)F)cc2)N=C(c2ccccc2)c2ccccc21` came in with a concentration for half-maximal inhibition (IC50) of 4600 nM.
Under `COc1cccc(NC(=O)N[C@@H]2N=C(c3ccccc3)c3ccccc3N(C)C2=O)c1` stands 2.2 nM.
Under `CN1C(=O)[C@H](NC(=O)Nc2cccc(N)c2)N=C(c2ccccc2)c2ccccc21` stands 33 nM; under `CN1C(=O)[C@H](NC(=O)NCc2cccc(O)c2)N=C(c2ccccc2)c2ccccc21`, 19 nM; under `CC(=O)Oc1cccc(NC(=O)N[C@@H]2N=C(c3ccccc3)c3ccccc3N(C)C2=O)c1`, 500 nM.
For `CN1C(=O)[C@H](NC(=O)Nc2cccc(O)c2)N=C(c2ccccc2)c2ccccc21`, the IC50 amounted to 15 nM. This IC50 lies about 33-fold lower than the previous one.
Take `C=Cc1cccc(NC(=O)N[C@@H]2N=C(c3ccccc3)c3ccccc3N(C)C2=O)c1`: the IC50 is 35 nM.
Under `CN1C(=O)[C@H](NC(=O)Nc2cccc(CN)c2)N=C(c2ccccc2)c2ccccc21` stands 719 nM.
The value for `CN1C(=O)[C@H](NC(=O)Nc2ccccc2Cl)N=C(c2ccccc2)c2ccccc21` was 61 nM.
The value for `COc1cccc(NC(=O)N[C@H]2N=C(c3ccccc3)c3ccccc3N(C)C2=O)c1` was 300 nM.
As to `Cc1cccc(NC(=O)N[C@@H]2N=C(c3ccccc3)c3ccccc3NC2=O)c1`, the 50% inhibitory concentration (IC50) is 40 nM.
As to `CN1C(=O)[C@@H](NC(=O)Nc2ccccc2Cl)N=C(c2ccccc2)c2ccccc21`, the concentration for half-maximal inhibition (IC50) came out at 280 nM.
On to `CN1C(=O)[C@H](NC(=O)Nc2cccc(Br)c2)N=C(c2ccccc2)c2ccccc21`, for which the 50% inhibitory concentration (IC50) came out at 3.8 nM. Against the preceding compound, the IC50 is about 74-fold lower.
The value for `CN1C(=O)[C@H](NC(=O)Nc2cccc(Cl)c2)N=C(c2ccccc2)c2ccccc21` was 7.5 nM; that for `O=C(Nc1ccc(Cl)cc1)N[C@@H]1N=C(c2ccccc2)c2ccccc2N(CC(=O)N2CCCC2)C1=O` was 1.4 nM; that for `Cc1cccc(NC(=O)NC2N=C(c3ccccc3)c3ccccc3N(CC(=O)N3CC[N+](C)(C)CC3)C2=O)c1` (stereo not given) [1,1-Dimethyl-4-{2-[2-oxo-5-phenyl-3-(3-m-tolyl-ureido)-2,3-dihydro-benzo[e][1,4]diazepin-1-yl]-acetyl}-piperazin-1-ium; iodide] was 58 nM.
Under `C[C@H](NC(=O)NC1N=C(c2ccccc2)c2ccccc2N(C)C1=O)c1ccccc1` (stereo not given in full) [1-(1-Methyl-2-oxo-5-phenyl-2,3-dihydro-1H-benzo[e][1,4]diazepin-3-yl)-3-(1-phenyl-ethyl)-urea] stands 11000 nM; under `CN1C(=O)C(NC(=O)Nc2ccccc2[N+](=O)[O-])N=C(c2ccccc2)c2ccccc21` (stereo not given) [1-(1-Methyl-2-oxo-5-phenyl-2,3-dihydro-1H-benzo[e][1,4]diazepin-3-yl)-3-(2-nitro-phenyl)-urea], 1200 nM.
`CN1C(=O)C(NC(=O)Nc2cccc([N+](=O)[O-])c2)N=C(c2ccccc2)c2ccccc21` (stereo not given) [1-(1-Methyl-2-oxo-5-phenyl-2,3-dihydro-1H-benzo[e][1,4]diazepin-3-yl)-3-(3-nitro-phenyl)-urea] came in with a concentration for half-maximal inhibition (IC50) of 11 nM.
`CN1C(=O)C(NC(=O)Nc2cccc(C(F)(F)F)c2)N=C(c2ccccc2)c2ccccc21` (stereo not given) [1-(1-Methyl-2-oxo-5-phenyl-2,3-dihydro-1H-benzo[e][1,4]diazepin-3-yl)-3-(3-trifluoromethyl-phenyl)-urea] came in with an IC50 of 3.8 nM.
The compound `CN1C(=O)C(NC(=O)Nc2ccc([N+](=O)[O-])cc2)N=C(c2ccccc2)c2ccccc21` (stereo not given) [1-(1-Methyl-2-oxo-5-phenyl-2,3-dihydro-1H-benzo[e][1,4]diazepin-3-yl)-3-(4-nitro-phenyl)-urea] displayed an IC50 of 46 nM.
